Assay [1] has as its system HCT116 ARID1A+/+ xenografts. Kind of assay: In vivo efficacy, HCT116 ARID1A+/+ subcutaneous xenografts. Further details: species or system mice. On the procedure:
FIG. 3. In vivo ARID1A/ATR synthetic lethality. A. Schematic of VX-970 therapy experiment in mice bearing established HCT116 ARID1A^+/+ and ARID1A^−/− xenografts. Cells were inoculated subcutaneously into nude mice and tumors allowed to establish for 10 days. Mice were then randomized to treatment regimens of either VX-970 (60 mg/kg, 4× weekly by oral gavage) or vehicle. Mice were then treated for a subsequent 40 days. Tumor volume was monitored twice weekly. B. Relative tumor volume plot from (A) showing efficacy of VX-970 and selectivity for ARID1A^−/− xenografts* p=0.024, ANOVA. C. Schematic of tumor incidence experiment in mice with non-established HCT116 ARID1A^+/+ and ARID1A^−/− xenografts. Mice were inoculated with cells as before, randomized and then treated with VX-970. VX-970 or vehicle treatment was initiated on the day of cell implantation. Tumor volume was monitored twice weekly and overall tumour incidence was assessed 40 days later. D. Bar chart of incidence 40 days after implantation of HCT116 ARID1A^+/+ and ARID1A^−/− cells. Each group contained 15 animals and fractions above bars indicate the number of animals in which a measurable xenograft formed. *p=0.027 Fisher's exact test. E and F. Tumor growth in experiment described in (C). *p=0.015 ANOVA. G. VX-970 dose response curves from TOV21G (ARID1A mutant) and RMG1 (ARID1A wildtype) cells. Cells were exposed to VX-970 for 5 days. […] PARP-1, cleaved PARP-1 (85 kDa fragment) and tubulin were detected by western blot. […] Caspase3/7 activity was assessed using Caspase-Glo and total cellular viability was estimated using CellTitre-Glo. Luminescence ratios for Caspase-Glo (i.e. apoptotic cells) and CellTitre-Glo (ie viable cells) was determined for each dose and normalized to DMSO treated samples. *Student's t-test, p<0.05. […]
In vivo efficacy studies were performed using HCT116 […], HCT116 ARID1A^−/− and TOV21G cells injected subcutaneously in the flank of female CD-1 Nude mice. […] Tumours were measured manually by calliper trice weekly and animals were sacrificed when tumours reached >15 mm in any direction.

The subject of assay [2] is SYO1 cells. Kind of assay: DNA fibre analysis, replication fork speed in SYO1 cells. The settings on record: 0.1 μM for two hours; p<0.0001. It is filed as cell-based, human. On the procedure:
FIG. 10. ATR inhibitors elicit replication fork stress in SS tumour cells. […] Error bars represent SEM from triplicate experiments. p values were derived from Student's t tests. B. Western blot illustrating PARP1 cleavage in SYO1 cells exposed to VX970 for 24 hours. C. Western blot illustrating H2AX phosphorylation (γH2AX) in SYO1 cells exposed to VX970 (0.1 μM). D. Confocal microspcopy images illustrating H2AX phosphorylation in SYO1 cells exposed to VX970 (0.1 μM, 24 hours). E. Bar chart depicting data from (D). Error bars represent SEM from 100 images. p values were derived from Student's t tests. F. Replication fork speeds in SYO1 cells exposed to 0.1 μM VX970 for two hours. p value was derived from a Student's t test. G. Replication fork speeds in HCT116 cells exposed to 0.1 μM VX970 for two hours in the presence and absence of ectopic expression of a SS18-SSX1 fusion protein. p values were derived from Student's t tests. Expression of SS18-SSX1 or exposure to VX970 reduced fork speed. Combined SS18-SSX1 expression and VX970 exposure enhanced the reduction in fork speed. H and I. FACS plots from SYO1 cells exposed to VX970.
ATRi induced cytotoxicity in tumour cells derived from carcinomas is often associated with an increase in replication fork stress.

Assay [3] has as its system HCT116 ARID1A isogenic (+/+ and −/−) cell lines. Kind of assay: Clonogenic survival of ARID1A isogenic cells. It is filed as cell-based, human. On the procedure: FIG. 2. In vitro ARID1A/ATR synthetic lethality. A. Chemical structure of VX-970. B. Western blot of ARID1A in human ARID1A isogenic HCT116 cells. C. Image of colonies in 6 well-plate clonogenic assay. HCT116 ARID1A isogenic (^+/+ and ^−/−) cell lines were exposed to increasing concentrations of the VE-821 (0, 0.1, 1 uM) and VX-970 (0, 0.01, 0.05 uM) for 14 days. D and E. Dose response clonogenic survival curve of HCT116 ARID1A isogenic (^+/+ and ^−/−) cell lines exposed to increasing concentrations of the VE-821 and VX-970 for 14 days. Error bars represent SD from triplicate experiments, ANOVA p-value of <0.0001. F. Area under curve (AUC) box whisker comparison plot for human tumor cell lines exposed to VX-970 for five days. ARID1A wild type tumor cell lines (n=15) were compared to ARID1A mutant cell lines (n=9). Student's t-test p=0.00594. G. Dose response clonogenic survival curve of mouse Arid1a isogenic ES cell lines. Experiment was performed as per (C). Error bars represent SD from triplicate experiments, ANOVA p value of <0.0001. H. Western blot of Arid1a protein expression in mouse ES Arid1a isogenic cells. I. Z score box whisker comparison plot for 86 human tumor cell lines transfected with ATR siRNA. Cells lines were transfected with siRNA and cell viability was estimated five days later by Cell Titre Glo reagent.
Short-term survival assays were performed in 384-well plates. Exponentially growing cells were plated at a concentration of 500 cells/well. Drug was added 24 h after seeding and cells were continuously exposed to the drug for five days, after which cell viability was estimated using CellTitre-Glo luminescence (Promega). For clonogenic assays, cells were seeded in 6-well plates (500 cells/well) and continuously exposed to drug 24!h after seeding for 14 days. Media containing fresh drug was replaced every 72 hours. Cells were fixed with 10% trichloroacetic acid and stained with sulphorhodamine B (Sigma-Aldrich, Gillingham, UK). Colonies were counted manually. All cell-based assays were performed at least in triplicate.

Consider `CNCc1ccc(-c2cc(-c3nc(-c4ccc(S(=O)(=O)C(C)C)cc4)cnc3N)on2)cc1` [VX-970, 5-[4-(Isopropylsulfonyl)phenyl]-3-(3-{4-[(methylamino)methyl]phenyl}-1,2-oxazol-5-yl)-2-pyrazinamine], for which, in assay [1] (60 mg/kg, 4x weekly oral gavage, 40 days), the “growth of established ARID1A+/+ xenografts” value is recorded as “no effect”. Also, the “growth of ARID1A+/+ xenografts under continued treatment” value in assay [1] (non-established xenograft experiment, p=0.63 ANOVA) was “did not impair”. The “incidence of ARID1A+/+ xenografts” value in assay [1] (treatment from day of cell implantation, incidence 40 days later, 15 animals per group) turned out to be 80%. Also, the replication fork speed result in assay [2] is “significant reduction in replication fork speed”. Besides, the “ARID1A−/− selectivity compared with PARP inhibitors or cisplatin” value in assay [3] is recorded as “greater than for other proposed ARID1A-targeted agents”.

The values above are taken from patent US12233060B2, “Inhibitors of Ataxia-Telangiectasia Mutated and Rad3-related protein kinase (ATR) for use in methods of treating cancer” (THE INSTITUTE OF CANCER RESEARCH: ROYAL CANCER HOSPITAL, priority 2016, dated 2025).
